Key:
[1] = test system: Hep G2; assay: killing of cultured cells, Hep G2; assay type: cell-based; design: key to cells killed by treatment: “+” indicates that the cells were killed by treatment; “−” indicates that they were not; “+/−” indicates a slow marginal response seen only in a few special cases with fibroblasts experimentally transformed by introduction of the ras oncogene; details: Hep G2; compound at two to fourfold above its threshold killing concentration
Source text: (§1) Table 1: Summarized are the responses of cells in culture to killing by example members of the family of blocked lipoate derivatives that are the object of this invention as well as one control compound (dihydroxyoctanoic acid). At right is indicated the specific cell line followed by the tissue of origin of the cell line. Across the top are listed the specific compounds tested. Each blocked lipoate derivative was used at two to fourfold above its threshold killing concentration. [These concentrations range form 0.15 mM (60 ug/ml or 60 mg/kg) to 2.5 mM (800 ug/ml or 800 mg/kg) (see EXAMPLE 11).] […] “+/−” indicates a slow marginal response seen only in a few special cases with fibroblasts experimentally transformed by introduction of the ras oncogene (EXAMPLE 10).
(§2) First, each cell type to be tested was plated at low densities in the wells of a standard 6×24 well tissue culture plate. (Multiple wells are seeded for each cell type.)
(§3) Second, the cells were allowed to grow to moderate densities. Transformed cells are in contact and non-transformed cells are contact-inhibited under these conditions.
(§4) Third, the lipoate derivatives to be tested were added to individual wells. In these experiments each compound was added at two to fourfold above the threshold killing concentration for cancer cells (EXAMPLE 11).
(§5) Fourth, cells were monitored over the next several days.

[2] = test system: SW480 (Colon); assay: killing of cultured cells, SW480; assay type: cell-based; design: key: “+” indicates that the cells were killed by treatment; “−” indicates that they were not; “+/−” indicates a slow marginal response seen only in a few special cases with fibroblasts experimentally transformed by introduction of the ras oncogene; details: compound at two to fourfold above its threshold killing concentration
Source text: as §1, §2, §3, §4, §5

[3] = test system: A549 (Lung); assay: killing of cultured cells, A549; assay type: cell-based; design: key to cells killed by treatment: “+” indicates that the cells were killed by treatment; “−” indicates that they were not; “+/−” indicates a slow marginal response seen only in a few special cases with fibroblasts experimentally transformed by introduction of the ras oncogene; details: A549, Lung; compound at two to fourfold above its threshold killing concentration
Source text: as §1, §2, §3, §4, §5

[4] = test system: LnCap (Prostate); assay: killing of cultured cells, LnCap; assay type: cell-based; design: key: “+” indicates that the cells were killed by treatment; “−” indicates that they were not; “+/−” indicates a slow marginal response seen only in a few special cases with fibroblasts experimentally transformed by introduction of the ras oncogene; details: compound at two to fourfold above its threshold killing concentration
Source text: as §1, §2, §3, §4, §5

[5] = test system: MCF 7 (Breast); assay: killing of cultured cells, MCF 7; assay type: cell-based; design: key: “+” indicates that the cells were killed by treatment; “−” indicates that they were not; “+/−” indicates a slow marginal response seen only in a few special cases with fibroblasts experimentally transformed by introduction of the ras oncogene; details: compound at two to fourfold above its threshold killing concentration
Source text: as §1, §2, §3, §4, §5

[6] = test system: HeLa (Cervix); assay: killing of cultured cells, HeLa; assay type: cell-based; design: key to cells killed by treatment: “+” indicates that the cells were killed by treatment; “−” indicates that they were not; “+/−” indicates a slow marginal response seen only in a few special cases with fibroblasts experimentally transformed by introduction of the ras oncogene; details: Cervix, compound at two to fourfold above its threshold killing concentration
Source text: as §1, §2, §3, §4, §5

[7] = test system: B16 (Skin); assay: killing of cultured cells, B16; assay type: cell-based; design: key: “+” indicates that the cells were killed by treatment; “−” indicates that they were not; “+/−” indicates a slow marginal response seen only in a few special cases with fibroblasts experimentally transformed by introduction of the ras oncogene; details: compound at two to fourfold above its threshold killing concentration
Source text: as §1, §2, §3, §4, §5

[8] = test system: RD (Embryo); assay: killing of cultured cells, RD; assay type: cell-based; design: key to cells killed by treatment: “+” indicates that the cells were killed by treatment; “−” indicates that they were not; “+/−” indicates a slow marginal response seen only in a few special cases with fibroblasts experimentally transformed by introduction of the ras oncogene; details: RD, Embryo; compound at two to fourfold above its threshold killing concentration
Source text: as §1, §2, §3, §4, §5

[9] = test system: Saos 2 (Bone); assay: killing of cultured cells, Saos 2; assay type: cell-based; design: key: “+” indicates that the cells were killed by treatment; “−” indicates that they were not; “+/−” indicates a slow marginal response seen only in a few special cases with fibroblasts experimentally transformed by introduction of the ras oncogene; details: compound at two to fourfold above its threshold killing concentration
Source text: as §1, §2, §3, §4, §5

[10] = test system: NIH 3T3 ras transformed; assay: killing of cultured cells, ras-transformed NIH 3T3 (T24); assay type: cell-based; design: key to cells killed by treatment: “+” indicates that the cells were killed by treatment; “−” indicates that they were not; “+/−” indicates a slow marginal response seen only in a few special cases with fibroblasts experimentally transformed by introduction of the ras oncogene; details: NIH 3T3 ras transformed; compound at two to fourfold above its threshold killing concentration
Source text: as §1, §2, §3, §4, §5
NIH-3T3 cells are relatively normal, noncancerous cells. However, if an activated allele of the ras oncogene is introduced into these cells they become highly malignant (cancerous) as assessed by several assays (REFERENCE).

[11] = test system: cancer cells in culture; assay: threshold killing concentration and dose response in cultured cells; assay type: cell-based; details: for threshold killing concentration: approximate center of a range extending two to threefold
Source text: First, each compound killed cancer cells in culture at or above a relatively narrow, specific concentration range, but not below. The threshold concentrations given below represent the approximate center of this range which extended roughly two to threefold. […] Below these saturation ranges, sensitive cells survived and grew. They could be removed and replated to grow, apparently indefinitely, under these conditions. […] This was a highly unusual dose/response profile. The threshold killing concentrations (ranges) varied between individual compounds. Examples of these threshold killing concentrations were as follows: bis-benzoyl lipoate (EXAMPLE 3) 60 mg/liter (60 mg/kg), monoacetyl lipoate (EXAMPLE 4) 100 mg/liter (100 mg/kg); bis-acetyl lipoate (EXAMPLE 2) 600 mg/liter (600 mg/kg).
These changes were ultimately followed by cell death if treatment was continued. However, these morphological changes were reversed, and the cells recovered, if the lipoate derivative was removed during this initial exposure. As with the dose/response profile of the preceeding paragraph, this reversible induction of morphological change followed by commitment to cell death is highly idiosyncratic. The discovery that this behavior was shown by all tested members of the class of compounds that are the object of this invention was, again, very strong evidence that these compounds are, in fact, a functionally coherent class.

[12] = test system: HeLa cells; assay: killing of HeLa cells with or without dichloroacetate (DCA); assay type: cell-based; details: compound ca. twofold above threshold killing dose plus 5 mM DCA
Experimental: HeLa cells were plated at moderate densities and allowed to attach and grow for ca. 24 hours in a series of wells in a multi-well tissue culture plate. To individual wells of the first subset (control) were added bis-acetyl lipoate, mono-acetyl lipoate or bis-benzoyl lipoate—each at ca. twofold above the threshold killing dose (EXAMPLE 11). To an equivalent (experimental) subset of wells were added these same compounds at the same dose together with the simultaneous addition of DCA to 5 mM final concentration.

[13] = nonspecific toxicity by intraperitoneal injection; details: C57/BL, mouse, in vivo, ip
Experimental: (§6) (All studies described in this section were carried out by intraperitoneal (IP) injection into C57/BL mice.)

[14] = test system: C57/BL mice; assay: nonspecific toxicity by intraperitoneal injection; details: mouse, in vivo, ip
Experimental: as §6

[15] = test system: B-16 melanoma; assay: B-16 system, subcutaneous tumors; assay type: in vivo, mouse; details: 100 mg/kg twice daily, started at tumors ca. 3-5 mm
Source text: The B-16 melanoma strain was introduced either subcutaneously or intraperitoneally into individuals of the C57/BL syngeneic mouse strain (7). When left untreated such mice develop massive tumors in the immediate area of injection as well as secondary metastases throughout the animal—including in the liver and the lungs. These malignant growths result in the early death of the animals. Moreover, the resulting malignant growths are made up of darkly pigmented malignant melanocytes—making their assessment convenient and highly reliable. We will henceforth refer to this as the “B-16 system”.
Second, a group of animals were injected at a subcutaneous site with B-16 cells. […] As this time, one group oL animals (experimentals) began a twice-daily series of injections of the bis-acetyl lipoate derivative (100 mg/kg in 100 ul of isotonic saline) and a second set (controls) of corresponding injections of the saline solvent alone. [See EXAMPLES 2, 8 and 11 for the details of bis-acetyl lipoate derivative.]
Third, in several animals subcutaneous tumors were produced as in the preceding paragraph. After the tumors had grown to visible, palpable size, these animals received both a twice daily IP (systemic) dose of 50 mg/kg of bis-benzoyl lipoate as well as a twice daily direct injection a second dose of the same volume directly into the tumor mass.

Compound	cells killed by treatment [1]	cells killed by treatment [2]	cells killed by treatment [3]	cells killed by treatment [4]	cells killed by treatment [5]	cells killed by treatment [6]	cells killed by treatment [7]	cells killed by treatment [8]	cells killed by treatment [9]	cells killed by treatment [10]	threshold killing concentration [11] [mg/L]	speed of cell killing with DCA relative to compound alone [12]	effect on cells in culture ([11]; tested up to 5 mM (3200 ug/ml), cell lines of Table 1)	LD50 [13] [mg/kg]	maximum well-tolerated dose [14]	response of subcutaneous tumor [15]
CN1C(=O)CC(SCCC(CCCCC(=O)O)SC2CC(=O)N(C)C2=O)C1=O (stereo not drawn) [bis methyl sucimimido lipoate, 6,8-Bis-[S-(N-methylsuccinimido)]mercaptooctanoic acid]	+	+	+	+	+	+	+	+	+	–	–	–	–	–	–	–
NC(=O)CSCCC(CCCCC(=O)O)SCC(N)=O (centres unmarked) [bis carbamoyl lipoate, 6,8-Biscarbamoylmethylmercaptooctanoic acid]	+	–	–	–	–	–	–	–	–	–	–	–	–	–	–	–
CC(=O)SCCC(S)CCCCC(=O)O (centres unmarked) [monoacetyl lipoate, 8-acetylmercapto-6-mercaptooctanoic acid]	+	+	+	+	+	+	+	+	+	+	100	approximately twvice as rapidly	–	–	–	–
O=C([O-])CCCCC(O)CCO.[Na+] (centres unmarked) [dihydroxy octanoic acid, Sodium 6,8-Dihydroxyoctanoate, reference compound]	–	–	–	–	–	–	–	–	–	–	–	–	without detectable effect	–	–	–
CC(=O)SCCC(CCCCC(=O)O)SC(C)=O (centres unmarked) [bis-acetyl lipoate, 6,8-bisacetylmercaptooctanoic acid]	+	+	+	+	+	+	+	+	+	+/−	600	approximately twvice as rapidly	–	~500	ca. 200 mg/kg	palpable softening and apparently partial liquification of the tumor mass followed by a stabilization or a reduction in size

From patent publication US6951887B2 (The Research Foundation of State University of New York, priority 1998, dated 2005)
